Several values for one entry are separate records, joined by “and”; a condition that tells them apart may be missing. Identical values can stand only once.
Legend:
[1] = Dye penetration study of mammary papilla, confocal and fluorescence microscopy; format: in vitro ADME, porcine; settings: 12 hours treatment; 2 mm section from middle of papilla; confocal laser scanning microscopy
Procedure: For dye penetration studies, 10 mM of the dye sulforhodamine B (SRB) in 1:1 of ethanol:phosphate buffer and 0.32 mM of Nile Red (NR) in propylene glycol were applied on the mammary papillae for 12 hours. At the end of the study, the tissue was washed, cut into 2 mm thick sections as described earlier and placed on a glass slide for confocal microscopy study. Confocal images of mammary papilla were taken from approximately […] below the surface of the mammary papilla.
Mammary papillae were treated with each dye for 12 hours. Then, starting from tip, 2 mm thick sections of papillae were taken (FIG. 8). Section B was taken from middle of mammary papilla and studied with confocal laser scanning microscopy. From this 2 mm thick section, xy dimensional images were taken at different depths starting from 0 to 500 μm. Because xy views are taken at different depths (the dimension z), these are xyz images. The upper image is an xyz view after treatment with hydrophilic dye SRB. […] The xz views of the mammary papillae were also analyzed.
Fluorescence Microscopy. To verify the confocal data, cryo-sectioning of mammary papillae was performed after 12 hours treatment with the dyes. […] Sections from various different depths of the papilla and studied by fluorescence microscopy. […]

[2] = cited from earlier work
[3] = In vitro penetration and permeation via excised porcine mammary papilla, Franz diffusion cell (Example 1); format: in vitro ADME
Procedure: Drug penetration and permeation via mammary papillae was performed in a Franz diffusion cell using excised porcine mammary papilla. […] The transport studies were performed at time points for 6 and 48 hours.
In a separate study to evaluate the drug retention and disposition, the treatment was removed after 6 hours and the study was continued until the 48 hour mark. Samples were withdrawn from the receptor compartment at different time points. At the end of study, the mammary papilla was cut to 2 mm thick cylindrical sections from the top to the base of the tissue and was digested using a tissue solubilizer. The drug concentrations were determined by liquid scintillation counting.
Methods for the preparation of porcine mammary papilla. Freshly excised strips of porcine mammary papilla (6-7 months old animals) were washed with deionized water followed by removal of subcutaneous fatty tissue using a scalpel. Keeping the mammary papilla in the center, 3 cm×3 cm sized specimens of the tissue were excised, subcutaneous fat tissue was removed, and the tissue was frozen at −20° C. until used for the drug penetration and permeation studies.
Breast tissue was mounted between the two compartments of a vertical Franz diffusion cell (FDC) with breast tissue sandwiched between donor and receptor compartments. A mammary papilla was set in upright position inside the donor compartment of Franz diffusion cell. […] Samples were withdrawn from the receptor at different time points for 48 hours to determine drug concentration by radioactive count. At the end of 48 hours, tissue samples were taken for drug content determination. […]
In a second study, the mammary papillae in Franz diffusion cells were treated with the drugs for 48 hours and the permeation was followed through 48 hours. This analysis provided information regarding any saturation from drug treatment for extended periods of time. […]
Extraction of drugs from the mammary papilla. At the end of permeation study, the mammary papilla was removed from Franz diffusion cell and thoroughly washed with deionized water and blotted dried. Approximately 2 mm thick sections of the tissue were taken using a scalpel. These sections were homogenized, the drug was extracted, and the drug concentration was determined by radioactive counts.

[4] = Transmammary permeation across porcine mammary papilla with and without removal of the keratin plug (Experiments 7-10); format: in vitro ADME
Source text: Keratin plug was removed from human and porcine mammary papilla using an alcoholic cotton swab. The swab was gently rubbed on the surface of the mammary papilla. The mammary papilla was observed under the microscope to confirm the removal of the plug from the surface and to confirm that epidermis of the mammary papilla was not damaged during this procedure.
The drug solutions were spiked with radioactive substances. […] Receptor medium was PBS with 7.4 pH.
(§1) Mammary papillae tissues were thawed. Keratin plugs were removed from the mammary papilla tissues using swabs with ethanol. […] The drug solutions were spiked with radioactive substances. […] Receptor medium was PBS with 7.4 pH.
as §1
Mammary papillae tissues were thawed. Keratin plugs were removed from the mammary papilla tissues using swabs with ethanol. […] The drug solutions were spike with radioactive substances. […] Receptor medium was PBS with 7.4 pH.

[5] = Transmammary permeation across human mammary papilla with and without removal of the keratin plug (Experiments 12-18); format: in vitro ADME; settings: for lag time / cumulative amount permeated / Drug retention in tissue / Flux: value (SEM); for cumulative amount permeated: 48 hours; for Drug retention in tissue: end of 48 hours; for Increase in permeation across the tissues upon removal of the keratin plugs: human mammary papilla
Source text: Mammary papillae tissues were thawed. […] The drug solutions were spiked with radioactive substances. […] Receptor medium was PBS with 7.4 pH. […] Results may be seen in FIG. 37 and Table 13.
Mammary papillae tissues were thawed. […] The drug solutions were spiked with radioactive substances. […] Receptor medium was PBS with 7.4 pH. […] Results may be seen in FIG. 38 and Table 15.
Mammary papillae tissues were thawed. […] The drug solutions were spiked with radioactive substances. […] Receptor medium was PBS with 7.4 pH. […] Results may be seen in FIG. 39 and Table 17.
Mammary papillae tissues were thawed. […] The drug solutions were spiked with radioactive substances. […] Receptor medium was PBS with 7.4 pH. […] Results may be seen in FIG. 40.
Mammary papillae and skin tissues were thawed. […] The drug solutions were spiked with radioactive substances. […] Receptor medium was PBS with 7.4 pH. […] Results may be seen in FIG. 41 and Table 20.
Mammary papillae and skin tissues were thawed. […] The drug solutions were spiked with radioactive substances. […] Receptor medium was PBS with 7.4 pH. […] Results may be seen in FIG. 42 and Table 22.
Mammary papillae tissues were thawed. […] The drug solutions were spiked with radioactive substances. […] Receptor medium was PBS with 7.4 pH. […] Results may be seen in FIG. 43 and Table 24.

[6] = Permeation across human breast skin (Experiments 16-18); format: in vitro ADME
Source text: Mammary papillae and skin tissues were thawed. Keratin plugs were removed from the mammary papilla tissues using swabs with ethanol. […] The drug solutions were spiked with radioactive substances. […] Receptor medium was PBS with 7.4 pH. […] Results may be seen in FIG. 41 and Table 20.
Mammary papillae and skin tissues were thawed. Keratin plugs were removed from the mammary papilla tissues using swabs with ethanol. […] The drug solutions were spiked with radioactive substances. […] Receptor medium was PBS with 7.4 pH. […] Results may be seen in FIG. 42 and Table 22. […]

[7] = excised porcine mammary papilla, saturated solution in ethanol:water (50:50), 48 h, mean ± SEM, n=3
[8] = porcine mammary papilla, end of 48 h, mean ± SEM, n=3
[9] = EST 15 mg/ml, human mammary papilla with keratin plug removal
[10] = EST 15 mg/ml, human mammary papilla without keratin plug removal
[11] = porcine mammary papilla after keratin plug removal, 48 hours, n=4
[12] = porcine mammary papilla after keratin plug removal, end of 48 hours
[13] = porcine mammary papilla after keratin plug removal, end of 48 hours, n=4
[14] = dextran 10 mg/ml, human mammary papilla with keratin plug removal, *Values multiplied by 1000
[15] = dextran 10 mg/ml, human mammary papilla without keratin plug removal, *Values multiplied by 1000

Compound: CCN(CC)c1ccc2nc3c4ccccc4c(=O)cc-3oc2c1 [NR, Nile Red]
- Distribution of dye fluorescence in mammary papilla [1]: observed only in and around the ducts
- Log P [2]: 3.8

Compound: C[C@]12CC[C@@H]3c4ccc(O)cc4CC[C@H]3[C@@H]1CC[C@@H]2O [EST, estradiol]
- Lag time ([3]; excised porcine mammary papilla, Franz diffusion cell, saturated solution in ethanol:water (50:50), 48 h, mean ± SEM, n=3): 7.07 ± 0.29 h
- Cumulative % permeated [3, 7]: 1.03 ± 0.08%
- Flux × 10^3 [3, 7]: 2.57 ± 0.15 μM · cm^2 · hr^−1
- Permeability coefficient × 10^3 [3, 7]: 0.05 ± 0.002 cm^2 · hr^−1
- cumulative amount permeated [3, 7]: 0.23 ± 0.02 µM
- Cumulative % retained [3, 8]: 4.52 ± 0.59%
- Drug extraction from 2 mm thick mammary papilla sections, Section A (tip) [3, 8]: 5.45 ± 0.49 µM/g
- Drug extraction from 2 mm thick mammary papilla sections, Section B [3, 8]: 3.63 ± 0.26 µM/g
- Drug extraction from 2 mm thick mammary papilla sections, Section C [3, 8]: 2.53 ± 0.31 µM/g
- Drug extraction from 2 mm thick mammary papilla sections, Section D (base) [3, 8]: 1.55 ± 0.53 µM/g
- Permeation across mammary papilla (in words) ([3]; porcine mammary papilla, treatment up to 48 hours): significant EST transport across the mammary papilla
- Change of permeation upon removal of the keratin plugs (in words) ([4]; porcine mammary papilla, donor in 50:50 ethanol:water, 48 hours): increases significantly
- lag time ([5]; EST 15 mg/ml in 50:50 ethanol:water, human mammary papilla with keratin plug removal): 2.08 (0.28) hours
- cumulative amount permeated [5, 9]: 2.62 (0.97) μmole
- Drug retention in tissue [5, 9]: 6.25 (2.12) umole/g of tissue
- Flux [5, 9]: 0.09 (0.03) μmole/cm^2/hour
- cumulative amount permeated [5, 10]: 0.58 (0.06) μmole
- Drug retention in tissue [5, 10]: 1.06 (0.04) umole/g of tissue
- Flux [5, 10]: 0.01 (0.00) μmole/cm^2/hour
- lag time [5, 10]: 7.02 (0.94) hours
- Permeation profile via human vs porcine mammary papillae ([5]; after keratin plug removal, 48 hours (Experiment 15)): similar
- Increase in permeation across the tissues upon removal of the keratin plugs [5]: more than 10 fold
- lag time ([6]; EST 15 mg/ml in 50:50 ethanol:water, human breast skin, value (SEM)): 0.56 (0.22) hours
- cumulative amount permeated ([6]; EST 15 mg/ml, human breast skin, 48 hours, value (SEM)): 2.10 (0.16) μmole
- Drug retention in tissue ([6]; EST 15 mg/ml, human breast skin, end of 48 hours, value (SEM)): 2.94 (0.30) umole/g of tissue
- Flux ([6]; EST 15 mg/ml, human breast skin, value (SEM)): 0.07 (0.01) μmole/cm^2/hour
- Log P [2]: 3.6

Compound: inulin
- Transmammary flux ([4]; porcine mammary papilla): 0.33 μg/sq·cm/h
- lag time ([4]; porcine mammary papilla after keratin plug removal, 10 mg/ml in 50:50 ethanol:water, n=4): 16.7 h and 16.78 h
- Drug permeation (% of applied dose) [4, 11]: 0.37 % of applied dose
- cumulative amt. permeated [4, 11]: 0.0037 µmol
- Amount permeated across the tissue [4, 12]: 18.37 µg
- Amount retaining into the tissue [4, 12]: 41.28 µg
- Drug retention in tissue (% of applied dose) [4, 13]: 0.83 % of applied dose
- Skin retention [4, 13]: 0.023 umole/g of tissue
- Total drug retention in tissue [4, 13]: 0.0083 µmol
- Flux ([4]; porcine mammary papilla after keratin plug removal, n=4): 0.000066 μmole/sq.cm/hr

Compound: dextran
- Increase in permeation upon removal of the keratin plugs ([4]; porcine mammary papilla, 10 mg/ml in 50:50 ethanol:water, 48 hours): approximately 2 folds
- lag time ([5]; dextran 10 mg/ml in 50:50 ethanol:water, human mammary papilla with keratin plug removal): 9.63 (0.90) hours
- cumulative amount permeated [5, 14]: 119.42 (19.35)* μmole
- Drug retention in tissue [5, 14]: 789.33 (99.11)* umole/g of tissue
- cumulative amount permeated [5, 15]: 16.54 (7.32)* μmole
- Drug retention in tissue [5, 15]: 89.88 (19.26)* umole/g of tissue
- lag time ([5]; dextran 10 mg/ml, human mammary papilla without keratin plug removal): 14.74 (1.41) hours
- Increase in permeation across the tissues upon removal of the keratin plugs [5]: more than 7 fold
- Penetration via human breast skin (in words) ([6]; 48 hrs treatment): no penetration of dextran even with 48 hrs treatment
- lag time ([6]; dextran 10 mg/ml in 1:1 ethanol:water, human breast skin, value (SEM)): 30.15 (3.04) hours

Compound: CCN(CC)c1ccc2c(-c3ccc(S(=O)(=O)O)cc3S(=O)(=O)[O-])c3ccc(=[N+](CC)CC)cc-3oc2c1 [SRB, sulforhodamine B]
- Distribution of dye fluorescence in mammary papilla [1]: distribution of the dye in both the ducts and in the surrounding tissue
- Log P [2]: −0.74
